Experiments:
E. coli IlvA = E. coli IlvA (Escherichia coli, UniProt P04968); conditions: purified E. coli IlvA in the absence of isoleucine; cited from earlier work
E. coli TdcB = E. coli TdcB (Escherichia coli, UniProt P0AGF6); conditions: E. coli TdcB in the absence of AMP; cited from earlier work
[1] = tested on: native 1-butanol producers; conditions: cited from earlier work
[2] = tested on: E. coli culture expressing kivd; assay: Alcohol productions with the supply of 2-keto acids; type: cell-based; conditions: 2-keto acid added to E. coli culture expressing kivd
Excerpt: The addition of various 2-keto acids (see Table 13) to the E. coli culture expressing kivd confirmed the specific production of the corresponding alcohols by 2- to 23-fold.

AHAS I = AHAS I (Escherichia coli, UniProt P08142); conditions: read-out: Km value for 2-ketobutyrate; cited from earlier work
Sequence of AHAS I (P0ADF8 whole entry): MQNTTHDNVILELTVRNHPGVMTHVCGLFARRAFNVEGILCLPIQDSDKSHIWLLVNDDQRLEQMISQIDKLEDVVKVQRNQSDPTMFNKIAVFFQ
Sequence of AHAS I (P08142 whole entry): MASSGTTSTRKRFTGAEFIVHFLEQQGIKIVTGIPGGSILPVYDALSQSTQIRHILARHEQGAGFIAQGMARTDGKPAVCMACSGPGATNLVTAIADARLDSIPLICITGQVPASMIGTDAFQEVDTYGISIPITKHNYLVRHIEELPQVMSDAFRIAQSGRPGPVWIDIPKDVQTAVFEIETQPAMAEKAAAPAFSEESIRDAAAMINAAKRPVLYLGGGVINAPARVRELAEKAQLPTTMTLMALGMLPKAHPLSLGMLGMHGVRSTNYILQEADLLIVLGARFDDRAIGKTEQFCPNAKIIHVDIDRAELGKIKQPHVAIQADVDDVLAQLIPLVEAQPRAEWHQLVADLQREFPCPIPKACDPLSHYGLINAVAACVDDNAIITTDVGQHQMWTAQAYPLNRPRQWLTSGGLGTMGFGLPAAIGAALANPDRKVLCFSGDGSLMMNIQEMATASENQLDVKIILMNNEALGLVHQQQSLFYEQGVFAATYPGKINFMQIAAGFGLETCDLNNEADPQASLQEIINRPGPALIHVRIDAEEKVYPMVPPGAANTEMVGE

E. coli BW25113 = assay: propanol and butanol production via the threonine pathway with alternative enzymes; type: cell-based; conditions: BW ΔmetA, Δtdh, ΔilvB, ΔilvI; tdcB with leuABCD on pCS20; 72 hours
Procedure: For some alcohol fermentation experiments, single colonies were picked from LB plates and inoculated into 3 ml of LB media with the appropriate antibiotics (ampicillin 100 μg/ml, kanamycin 50 μg/ml, and spectinomycin 50 μg/ml). The overnight culture grown in LB at 37° C. in a rotary shaker (250 rpm) was then inoculated (1% vol/vol) into 20 ml of M9 medium (6 g Na2HPO4, 3 g KH2PO4, 0.5 g NaCl, 1 g NH4Cl, 1 mM MgSO4, 10 mg vitamin B1 and 0.1 mM CaCl2 per liter of water) containing 30 g/L glucose, 5 g/L yeast extract, appropriate antibiotics, and 1000× Trace Metal Mix A5 (2.86 g H3BO3, 1.81 g MnCl2.4H2O, 0.222 g ZnSO4.7H2O, 0.39 g Na2MoO4.2H2O, 0.079 g CuSO4.5H2O, 49.4 mg Co(NO3)2.6H2O per liter water) in 250 ml conical flask. The culture was allowed to grow at 37° C. in a rotary shaker (250 rpm) to an OD600 of 0.4˜0.6, then 12 ml of the culture was transferred to a 250 ml screw capped conical flask and induced with 1 mM IPTG. The induced cultures were grown at 30° C. in a rotary shaker (240 rpm). Samples were taken throughout the next three to four days by opening the screwed caps of the flasks, and culture broths were either centrifuged or filtered to retrieve the supernatant. […]
Metabolite Detections. The produced alcohol compounds were quantified by a gas chromatograph (GC) equipped with flame ionization detector. […]

Sequence of E. coli IlvA (P04968 whole entry): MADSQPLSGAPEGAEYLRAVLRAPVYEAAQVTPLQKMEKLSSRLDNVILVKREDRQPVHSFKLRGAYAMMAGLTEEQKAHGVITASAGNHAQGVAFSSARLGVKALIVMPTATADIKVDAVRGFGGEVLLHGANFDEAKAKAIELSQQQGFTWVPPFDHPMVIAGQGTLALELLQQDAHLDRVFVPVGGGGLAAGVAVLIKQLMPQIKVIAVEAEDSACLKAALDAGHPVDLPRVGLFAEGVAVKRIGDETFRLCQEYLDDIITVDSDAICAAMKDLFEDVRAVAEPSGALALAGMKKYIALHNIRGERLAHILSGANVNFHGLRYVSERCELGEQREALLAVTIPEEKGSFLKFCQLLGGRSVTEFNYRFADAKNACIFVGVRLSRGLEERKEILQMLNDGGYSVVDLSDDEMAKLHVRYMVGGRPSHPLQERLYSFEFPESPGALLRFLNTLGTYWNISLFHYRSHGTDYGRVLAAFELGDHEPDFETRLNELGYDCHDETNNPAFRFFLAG

C[C@@H](O)[C@H](N)C(=O)O [threonine]
Km (E. coli IlvA): 8 mM | Km (E. coli TdcB): 20 mM

CCCCO [1-butanol]
tolerated 1-butanol concentration [1]: up to 2%

CCC(=O)C(=O)O [2-ketobutyrate]
Product 1-butanol [2]: 492 µM | Product 1-propanol [2]: 2138 µM | Product 2-methyl-1-butanol [2]: 1315 µM | Product 2-phenylethanol [2]: 26 µM | Product isobutanol [2]: 98 µM | Km (AHAS I): ~5 mM

B1: TdcB: E. coli's catabolic threonine dehydratase (protein, UniProt P0AGF6 1-329, looked up)
L-threonine dehydratase …: MHITYDLPVAIDDIIEAKQRLAGRIYKTGMPRSNYFSERCKGEIFLKFENMQRTGSFKIRGAFNKLSSLTDAEKRKGVVACSAGNHAQGVSLSCAMLGIDGKVVMPKGAPKSKVAATCDYSAEVVLHGDNFNDTIAKVSEIVEMEGRIFIPPYDDPKVIAGQGTIGLEIMEDLYDVDNVIVPIGGGGLIAGIAVAIKSINPTIRVIGVQSENVHGMAASFHSGEITTHRTTGTLADGCDVSRPGNLTYEIVRELVDDIVLVSEDEIRNSMIALIQRNKVVTEGAGALACAALLSGKLDQYIQNRKTVSIISGGNIDLSRVSQITGFVDA
lower production of both target alcohols compared to IlvA (E. coli BW25113): 70%
